# Results as given in patent US20070184080A1, “Post harvest treatment of crops” (AstraZeneca UK Ltd, priority 2002, published 2007).
# System: Colletotrichum musae
# Assay: Field test on inoculated banana hands: severity and incidence of molds and rots after 21 days storage
# Format: in vivo
# Details: 14 Degrees C., 90% RH
# From the text: As set forth below, two sample formulations, Formula “C” and Formula “F”, containing paraffin wax, microcrystalline wax, and polybutylene (synthetic butyl rubber) were field tested in a tropical commercial banana operation. The test was designed to test the wax fungicide alternative, “the invention”, versus untreated placebo fruit and identical fruit treated with commercial fungicides. The inoculants were a highly concentrated aqueous Colletotrichum musae spore solution that is grossly more concentrated than actual field processing conditions. […] The test methodology included with four main test groups, each containing a statistically significant number of banana hands (clusters) to compare the relative infestation incidence rate of: • a.) Untreated inoculated fruit. • b.) Modified-wax treated inoculated fruit.—Two Formulas, C and F • c.) Fungicide treated inoculated fruit. • 1.) All of the fruit was inoculated with an aqueous suspension of 20,000 spores per milliliter of Colletotrichum by immersion in said suspension for a minimum of one minute. • 2.) The Formula C and F wax treated fruit was processed by dipping the wet crown of the inoculated banana hands into the molten wax, cooling for one minute, and re-dipping in the molten wax. • 3.) The Fungicide treated fruit was immersed into an aqueous solution of Thiabenzadole at the manufacturer's recommended dosage. • 4. All of the fruit was packaged and stored in a laboratory warehouse for twenty-one days at a temperature of 14 Degrees C. and ninety percent relative humidity. An empirical visual grading scale was employed to record and measure test results for a.) The presence or absence of rots and molds.; and b.) The severity of infestation. Latex staining was also observed and recorded. A visual infestation severity scale of one to five (1-5) was created where: 1=clean crown, and 5=severely rotten crown. After incubation, the banana producer's trained laboratory technicians graded the fruit and the aggregate results were compiled as presented below.
smiles,measurement,setting,value
c1ccc2[nH]c(-c3cscn3)nc2c1 [Thiabenzadole],Severity Crown Mold,"Procedure I = Inoculated (20,000 spores/ml Colletotrichum), 1=clean crown, 5=severely rotten crown",3.7 Scale 1-5
same,INCIDENCE Crown Mold,Procedure I = Inoculated,92.2%
same,INCIDENCE Crown Rot,Procedure I = Inoculated,100%
same,INCIDENCE Neck Rot,Procedure I = Inoculated,27.2%
same,INCIDENCE Peel Rot,Procedure I = Inoculated,84%
same,Severity Crown Rot,"Procedure I = Inoculated, 1=clean crown, 5=severely rotten crown",3.92 Scale 1-5
